The test addresses T1, TsoI (Thermus scotoductus, UniProt T1RQY5).
T1 construct: gene tsoIRM; native enzyme purified from Thermus scotoductus RFL4; bifunctional REase-MTase, TspDTI subfamily
T1 sequence (T1RQY5 1-1116): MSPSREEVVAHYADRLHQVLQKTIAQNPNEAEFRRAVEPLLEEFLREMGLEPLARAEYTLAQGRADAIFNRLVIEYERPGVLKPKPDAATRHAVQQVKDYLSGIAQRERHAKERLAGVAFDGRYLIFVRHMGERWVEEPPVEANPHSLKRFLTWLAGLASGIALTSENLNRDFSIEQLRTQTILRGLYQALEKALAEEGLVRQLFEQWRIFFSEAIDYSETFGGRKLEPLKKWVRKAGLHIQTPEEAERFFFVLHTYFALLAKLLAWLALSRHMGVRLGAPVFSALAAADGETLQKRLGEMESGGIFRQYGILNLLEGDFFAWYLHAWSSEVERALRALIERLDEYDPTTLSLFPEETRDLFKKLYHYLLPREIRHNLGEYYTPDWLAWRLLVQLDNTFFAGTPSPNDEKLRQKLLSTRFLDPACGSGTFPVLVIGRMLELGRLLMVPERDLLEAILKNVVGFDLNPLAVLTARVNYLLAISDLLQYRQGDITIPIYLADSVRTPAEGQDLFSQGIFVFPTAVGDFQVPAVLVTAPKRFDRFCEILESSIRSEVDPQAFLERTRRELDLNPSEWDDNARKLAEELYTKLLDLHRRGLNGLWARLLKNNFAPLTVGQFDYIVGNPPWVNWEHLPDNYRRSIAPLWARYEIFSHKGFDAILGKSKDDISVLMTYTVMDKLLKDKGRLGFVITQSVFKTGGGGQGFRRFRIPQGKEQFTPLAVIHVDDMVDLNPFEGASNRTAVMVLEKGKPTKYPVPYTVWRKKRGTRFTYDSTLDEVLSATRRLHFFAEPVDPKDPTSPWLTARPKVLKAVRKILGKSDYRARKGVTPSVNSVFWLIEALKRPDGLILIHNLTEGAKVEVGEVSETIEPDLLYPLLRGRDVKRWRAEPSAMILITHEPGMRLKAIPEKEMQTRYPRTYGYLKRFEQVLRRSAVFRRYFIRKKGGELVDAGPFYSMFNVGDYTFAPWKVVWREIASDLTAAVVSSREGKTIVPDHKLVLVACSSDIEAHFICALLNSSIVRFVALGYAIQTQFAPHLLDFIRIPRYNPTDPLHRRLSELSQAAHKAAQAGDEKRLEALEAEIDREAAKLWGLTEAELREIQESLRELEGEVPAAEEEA
The experiment in a line: DNA cleavage assay, agarose gel (stimulation of secondary-cognate-specificity cleavage). Type of test: biochemical. Particulars: pUC19 supercoiled DNA; 500 uM compound (31.25-500 uM tested); 10 mM Tris-HCl pH 7.5, 10 mM MgCl2, 50 mM NaCl, 55 °C, 1 h; activator, presumed SAM-binding motif.

From publication PMC6449304, “Novel parameter describing restriction endonucleases: Secondary-Cognate-Specificity and chemical stimulation of TsoI leading to substrate specificity change” (Applied Microbiology and Biotechnology, 2019) come the findings set out here.

Molecules are shown by their SMILES.

With `Nc1ncnc2c1ncn2[C@@H]1O[C@H](CSC[C@H](N)C(=O)O)[C@@H](O)[C@H]1O` [SAC, S-adenosyl-L-cysteine], the “DNA cleavage assay, agarose gel (stimulation of secondary-cognate-specificity cl)” value is “efficiency of TsoI SCS cleavage is significantly stimulated by high concentrations of SAC”.
